In publication doi:10.1101/2025.05.02.651384v1 (biorxiv, 2025) one finds EC50 data, which are given here for seven compounds.

The target of one experiment is T1, HCAR1 (GPR81) (Homo sapiens, UniProt Q9BXC0). Nature of the experiment: ebBRET Gαz activation. Format: cell-based.
T1 sequence (Q9BXC0 whole entry): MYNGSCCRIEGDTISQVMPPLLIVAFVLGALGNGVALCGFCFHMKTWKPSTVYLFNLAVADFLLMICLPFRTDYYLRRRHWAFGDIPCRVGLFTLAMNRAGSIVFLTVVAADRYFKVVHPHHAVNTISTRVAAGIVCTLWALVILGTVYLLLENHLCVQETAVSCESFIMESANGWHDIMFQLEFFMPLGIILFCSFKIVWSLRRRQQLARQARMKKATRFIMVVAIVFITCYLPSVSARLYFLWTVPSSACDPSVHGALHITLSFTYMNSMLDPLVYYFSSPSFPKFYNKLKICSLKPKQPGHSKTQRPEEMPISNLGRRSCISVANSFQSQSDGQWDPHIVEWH
Conditions: not given
With `O=C(O)c1cc(O)cc(O)c1` [3,5-DHBA], the half-maximal effective concentration (EC50) (as a rule, the concentration giving half of the maximal effect) was 0.2 µM.

`C[C@H](O)C(=O)O` [(+)-lactic acid] came in with an EC50 of 1000 µM.

`CN1CCN(C(=O)Cc2sc(NC(=O)[C@H]3CC[C@H](C)CC3)nc2-c2cccs2)CC1` [GPR81 agonist 1] showed a concentration giving a half-maximal response (EC50) of 0.63 µM.

The target of the next experiment is T1, HCAR1 (GPR81). Nature of the experiment: ebBRET Gαi2 activation. Format: cell-based. The conditions noted are these: Gαi2, 37 °C, agonist.
Compound `CCOc1cc(Cl)c(C(=O)NC(=O)Nc2ncc(C)s2)cc1N1CCOCC1` [AZ2053] yielded a 50% effective concentration (EC50) of 1.78 µM.

In turn, `CCOc1cc(Cl)c(C(=O)NC(=O)Nc2nc3c(s2)CN(C(C)=O)CC3)cc1N1CCOCC1` [AZ4901] came in with an EC50 of 7.1 µM.

Take `CCOc1cc(Cl)c(C(=O)NC(=O)Nc2nc3c(s2)CCCC3)cc1N1CCOCC1` [AZ9091]: the half-maximal effective concentration (EC50) turned out to be 2 µM.

`CCOc1cc(Cl)c(-c2ccc(-c3nc4ccccc4s3)c(=O)[nH]2)cc1N1CCOCC1` [AZ9234] registered an EC50 of 6.8 µM.
